From patent US8653305B2, “Compound having S1P receptor binding potency and use thereof” (Ono Pharmaceutical Co., Ltd., priority 2004, dated 2014)

Experiments:
[1] = target: T1, EDG-6 (Homo sapiens, UniProt O95977); experiment: Inhibitory activity on binding of [^3H]-PhS1P to EDG-6; conditions: cell membrane fraction of EDG-6-overexpressing CHO cell; 10 nmol/L [^3H]-PhS1P solution; read-out: IC50 of inhibition of binding of [^3H]-PhS1P to EDG-6
T1 construct: expressed in transfected cells; host or cells: Chinese Hamster Ovary (CHO) cells, membrane fraction
T1 sequence (O95977 1-384): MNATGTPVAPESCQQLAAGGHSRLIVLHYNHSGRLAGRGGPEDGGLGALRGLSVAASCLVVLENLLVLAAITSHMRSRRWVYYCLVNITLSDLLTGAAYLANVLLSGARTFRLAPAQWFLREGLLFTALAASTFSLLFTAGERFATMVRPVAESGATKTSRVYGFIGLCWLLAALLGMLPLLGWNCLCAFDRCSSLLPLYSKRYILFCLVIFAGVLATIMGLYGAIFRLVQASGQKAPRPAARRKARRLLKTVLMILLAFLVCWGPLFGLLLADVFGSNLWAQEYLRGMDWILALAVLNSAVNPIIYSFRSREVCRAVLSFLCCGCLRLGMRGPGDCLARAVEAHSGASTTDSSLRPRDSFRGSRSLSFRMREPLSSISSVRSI
Protocol: Measurement of Inhibitory Activity of the Compound of the Present Invention on Binding of [^3H]-PhS1P to EDG-6
By using cell membrane fraction of an EDG-6-overexpressing Chinese Hamster Ovary (CHO) cell and 1 mg protein/mL of the membrane fraction, reaction was carried out in a 96-well plate. Into each well, 80 μL of a vehicle (DMSO) solution diluted with 2× binding buffer (100 mmol/L Tris pH 7.5, 200 mM NaCl, 30 mM NaF, 1% BSA) or a ligand solution having a twice higher concentration and 40 μL of 10 nmol/L [^3H]-PhS1P (5,5,6,6,-[…] phytosphingosine 1-phosphate: This was prepared in the following manner. A compound (anti-7-tert-butyl (4S)-4-[(1S,2R)-1-(benzyloxy)-2-hydroxyhexadec-3-yn-1-yl]-2,2-dimethyl-1,3-oxazolizine-3-carboxylate) prepared in accordance with a method reported in a document (Tetrahedron Lett., 38(34), 6027-6030 (1997)) was reacted with benzyl bromide in tetrahydrofuran in the presence of potassium hexamethyldisilylamide to thereby protect the hydroxy group of the compound. Then, it was treated in hydrogen chloride/methanol solution to remove an acetonide group. The compound thus obtained was reacted with N,N-diethyl-1,5-dihydro-2,4,3-benzodioxaphosphepin-3-amine in dichloromethane in the presence of tetrazole and then oxidized with m-chloroperbenzoic acid. Then, it was reacted in the presence of ASCA-2 catalyst (manufactured by NE Chemcat, 4.5% palladium-0.5% platinum catalyst carried on active carbon, see, Fine Chemical, Oct. 1, 2002, pages 5 to 14) in methanol under a tritium atmosphere. The obtained compound was treated with a 4 N hydrogen chloride/1,4-dioxane solution in dichloromethane to thereby obtain the desired compound) were added. Further, 40 μl of the membrane fraction solution was added and reacted at room temperature for 60 minutes. […] Then, 50 μl/well of Micro Scint 20 was added and the plate was covered with Top Seal-P. Then the radioactivity was measured with Top Count (Perkin Elmer).

[2] = target: T2, Human EDG-1 (Homo sapiens, UniProt P21453); experiment: Agonistic activity against EDG by monitoring changes in intracellular calcium ion [Ca^2+]i concentration; assay type: cell-based; conditions: Human EDG-1 overexpressing CHO cells; Fura2-AM; control 100 nM S1P; read-out: EC50 of agonistic activity against EDG-1 (increase ratio of intracellular calcium ion concentration)
T2 construct: expressed in transfected cells; host or cells: CHO cells
Protocol: Evaluation of an Agonistic Activity Against EDG of the Compound of the Present Invention by Monitoring Changes in Intracellular Calcium Ion [Ca^2+]i Concentration
Human EDG-1, EDG-3, EDG-5 or EDG-8 gene overexpressing CHO cells were cultured in Ham's F12 medium (manufactured by GIBCO BRL) containing 10% FBS (fetal bovine serum), penicillin/streptomycin and blasticidin (5 μg/ml). The cultured cells were incubated in a 5 μM Fura2-AM solution (Ham's F12 medium containing 10% of FBS, 20 mM HEPES buffer (pH7.4), and 2.5 mM probenecid) at 37° C. for 60 minutes. After washing once with Hanks solution containing 20 mM HEPES buffer (pH7.4), and 2.5 mM probenecid, the plate was soaked in the same solution until assay. Then, the plate was set on a fluorescent drug screening system (FDSS 6000; Hamamatsu Photonics) and the intracellular calcium ion concentration was measured without stimulation for 30 seconds. A test compound (final concentration: 1 nM to 10 μM, dimethylsulfoxide (DMSO) solution) was added and S1P (final concentration: 100 nM) was added 5 minutes thereafter. Then, the increase in the intracellular calcium ion concentration was measured before and after the addition of S1P at intervals of 3 seconds (excitation wavelength: 340 nm and 380 nm, fluorescence wavelength: 500 nm). […]

T2 sequence (P21453 whole entry): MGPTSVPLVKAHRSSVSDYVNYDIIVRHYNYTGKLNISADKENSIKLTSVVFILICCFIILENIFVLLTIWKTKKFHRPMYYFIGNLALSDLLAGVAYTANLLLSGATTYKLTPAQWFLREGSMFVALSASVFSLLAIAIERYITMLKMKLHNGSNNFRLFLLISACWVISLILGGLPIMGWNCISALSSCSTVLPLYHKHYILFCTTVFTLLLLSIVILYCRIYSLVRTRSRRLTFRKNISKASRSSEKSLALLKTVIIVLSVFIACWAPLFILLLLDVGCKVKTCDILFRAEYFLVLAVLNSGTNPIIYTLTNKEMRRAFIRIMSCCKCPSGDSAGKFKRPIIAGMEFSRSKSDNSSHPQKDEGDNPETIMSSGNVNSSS

Structure (SMILES)	IC50 [1] [nM]	EC50 [2] [nM]
COc1cc(CC(C)C)ccc1COc1ccc2c(c1)CCC(CN1CCN(c3ccccn3)CC1)=C2C [Example 66-24, 1-({6-[(4-isobutyl-2-methoxybenzyl)oxy]-1-methyl-3,4-dihydro-2-naphthalenyl}methyl)-4-(2-pyridinyl)piperazine]	81	
c1ccc(CCCCOc2ccc3cc(CN4CCCCC4)ccc3c2)cc1 [Example 5, 1-{[6-(4-phenylbutoxy)-2-naphthyl]methyl}piperidine]		7800
O=C(NS(=O)(=O)c1ccccc1)C1CN(Cc2ccc3cc(OCCCc4ccccc4)ccc3c2)C1 [Example 6]		250
COc1cc(CC(C)C)ccc1COc1ccc2c(c1)CCC(CN1CC(CO)C1)=C2C [Example 37-1, [1-({6-[(4-isobutyl-2-methoxybenzyl)oxy]-1-methyl-3,4-dihydro-2-naphthalenyl}methyl)-3-azetidinyl]methanol]	98	
CCNCC1=C(C)c2ccc(OCC(C)Cc3ccc(F)cc3)cc2CC1 (centres unmarked) [Example 27, N-({6-[3-(4-fluorophenyl)-2-methylpropoxy]-1-methyl-3,4-dihydro-2-naphthalenyl}methyl)ethanamine]	26	
